According to patent EP2669276A1 (Université de Strasbourg, priority 2012, dated 2013):

How the values were obtained:
[1] = biological target: T1, hNPFF1 (Homo sapiens, UniProt Q9GZQ6); assay: Receptor binding assay with [3H]-FFRFamide on CHO cell membranes expressing SF-hNPFFR1; details: [3H]-FFRF-NH2 radioligand, mean of at least two experiments; for Ki: read-out: Ki NPFF1
T1 construct: The cDNA encoding the full-length human NPFFR1 and human NPFFR2; expressed in transfected cells
Source text: (§1) The cDNA encoding the full-length human NPFFR1 and human NPFFR2 were subcloned into the pcDNA3 expression vector (Invitrogen, Cergy Pontoise, France) using standard molecular biology methods. A sequence encoding a signal sequence and a Flag epitope was fused to the 5' coding sequence of both hNPFFR1 and hNPFFR2 cDNA according to (Guan et al., 1992) resulting in a SF-hNPFFR1 and SF-hNPFFR2 constructs. These contructs were stably transfected into CHO cells.
(§2) Membranes from CHO cells stably expressing SF-hNPFFR1 or SF-hNPFFR2 were prepared as described (Becker et al., 1999). SF-hNPFFR1 or SF-hNPFFR2 membranes (10µg) were incubated for 30 min at 25 °C in a final volume of 0.5 ml containing 50 mM HEPES pH 7.4, 1 mM CaCl2, 1 mM MgCl2, 0.1% bovine serum albumin, 10 nM and 3 nM [^3H]-FFRFamide (CEA, Paris; specific activity, 13,6 Ci/mmol) for […], respectively and the ligands to be tested. Non-specific binding was determined in presence of 1 µM neuropeptide FF for SF-hNPFFR2 and 1 µM neuropeptide VF for SF -hNPFFR1. Typical total and nonspecific binding were 1200 and 200 dpm, respectively for SF-hNPFFR1 and SF-hNPFFR2. Incubation mixtures were rapidly filtered and washed with 50 mM HEPES pH 7.4, 1 mM CaCl2, 1 mM MgCl2, on 96 wells GF/B unifilter (Perkin Elmer). Unifilter plates where then dryied for 1hr at 65°C. Bound radioactivity was determined by scintillation counting with 30 µl of scintillation cocktail (O-scint, Perkin Elmer) per well on a Topcount scintillation apparatus (Perkin Elmer).

[2] = biological target: T2, hNPFF2 (Homo sapiens, UniProt Q9Y5X5); assay: Receptor binding assay with [3H]-FFRFamide on CHO cell membranes expressing SF-hNPFFR2; details: [3H]-FFRF-NH2 radioligand, mean of at least two experiments; for Ki: read-out: Ki NPFF2
T2 construct: The cDNA encoding the full-length human NPFFR1 and human NPFFR2; expressed in transfected cells
T2 sequence (Q9Y5X5 whole entry): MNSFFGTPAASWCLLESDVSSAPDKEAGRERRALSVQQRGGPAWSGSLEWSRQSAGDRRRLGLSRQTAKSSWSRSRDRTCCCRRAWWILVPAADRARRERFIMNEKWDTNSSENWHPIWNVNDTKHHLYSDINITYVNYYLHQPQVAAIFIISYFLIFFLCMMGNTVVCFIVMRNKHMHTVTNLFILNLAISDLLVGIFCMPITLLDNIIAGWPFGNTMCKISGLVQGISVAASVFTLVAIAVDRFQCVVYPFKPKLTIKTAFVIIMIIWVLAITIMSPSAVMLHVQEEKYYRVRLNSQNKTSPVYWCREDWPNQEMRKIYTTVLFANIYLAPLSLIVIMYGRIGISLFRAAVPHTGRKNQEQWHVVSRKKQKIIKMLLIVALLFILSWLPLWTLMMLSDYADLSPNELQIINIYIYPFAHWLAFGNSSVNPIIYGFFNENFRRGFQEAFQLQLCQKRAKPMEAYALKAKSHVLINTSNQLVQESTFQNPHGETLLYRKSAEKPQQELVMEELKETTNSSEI
Source text: as §1, §2

T1 sequence (Q9GZQ6 whole entry): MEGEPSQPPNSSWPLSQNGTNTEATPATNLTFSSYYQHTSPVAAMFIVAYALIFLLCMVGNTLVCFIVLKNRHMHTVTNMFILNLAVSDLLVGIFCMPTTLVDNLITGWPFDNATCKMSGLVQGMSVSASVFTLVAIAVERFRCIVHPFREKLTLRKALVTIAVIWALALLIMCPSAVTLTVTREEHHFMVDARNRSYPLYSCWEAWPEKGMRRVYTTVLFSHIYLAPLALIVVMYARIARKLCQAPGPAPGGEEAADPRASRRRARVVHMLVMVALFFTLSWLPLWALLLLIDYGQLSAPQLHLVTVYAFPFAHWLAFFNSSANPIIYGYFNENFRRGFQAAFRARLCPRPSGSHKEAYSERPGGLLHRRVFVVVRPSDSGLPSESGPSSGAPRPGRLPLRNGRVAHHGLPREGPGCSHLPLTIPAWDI

Row | SMILES | Ki [1] | inhibition at 0.5 µM [2] | inhibition at 5 µM [2] | Ki [2] | inhibition at 0.5 µM [1] | inhibition at 5 µM [1]
1 | O=C(N[C@@H](CCCNCc1cccc(Cl)c1)C(=O)NCCc1ccccc1)c1ccccc1-c1ccccc1 [Compound 13, (2S)-5-{[(3-chlorophenyl)methyl]amino}-N-(2-phenylethyl)-2-[(2-phenylphenyl)formamido]pentanamide] | 59 ± 14 nM | 23 ± 17% | 67 ± 4% |  |  | 
2 | O=C(N[C@@H](CCCNCc1ccc(Cl)cc1)C(=O)NCCc1ccccc1)c1ccccc1-c1ccccc1 [Compound 14, (2S)-5-{[(4-chlorophenyl)methyl]amino}-N-(2-phenylethyl)-2-[(2-phenylphenyl)formamido]pentanamide] | 45 ± 4 nM | 16 ± 2% | 54 ± 3% |  |  | 
3 | CN(CCC[C@H](NC(=O)c1ccccc1-c1ccccc1)C(=O)NCCc1ccccc1)Cc1ccccc1 [Compound 15, (2S)-5-[benzyl(methyl)amino]-N-(2-phenylethyl)-2-[(2-phenylphenyl)formamido]pentanamide] | 680 ± 160 nM |  |  | 1100 ± 510 nM |  | 
4 | COc1ccccc1CN(C)CCC[C@H](NC(=O)c1ccccc1-c1ccccc1)C(=O)NCCc1ccccc1 [Compound 16, (2S)-5-{[(2-methoxyphenyl)methyl](methyl)amino}-N-(2-phenylethyl)-2-[(2-phenylphenyl)formamido]pentanamide] |  | 6 ± 13% | 47 ± 1% |  | 9 ± 4% | 50 ± 10%
5 | COc1ccc(CN(C)CCC[C@H](NC(=O)c2ccccc2-c2ccccc2)C(=O)NCCc2ccccc2)cc1OC [Compound 17, (2S)-5-{[(3,4-dimethoxyphenyl)methyl](methyl)amino}-N-(2-phenylethyl)-2-[(2-phenylphenyl)formamido]pentanamide] |  | 18 ± 2% | 48 ± 3% |  | 17 ± 5% | 65 ± 6%
6 | CN(CCC[C@H](NC(=O)c1ccccc1-c1ccccc1)C(=O)NCCc1ccccc1)Cc1cccc(Cl)c1 [Compound 18, (2S)-5-{[(3-chlorophenyl)methyl](methyl)amino}-N-(2-phenylethyl)-2-[(2-phenylphenyl)formamido]pentanamide] |  | 8 ± 5% | 40 ± 3% |  | 8 ± 3% | 45 ± 2%
7 | CN(CCC[C@H](NC(=O)c1ccccc1-c1ccccc1)C(=O)NCCc1ccccc1)Cc1ccccc1Cl [Compound 19, (2S)-5-{[(2-chlorophenyl)methyl](methyl)amino}-N-(2-phenylethyl)-2-[(2-phenylphenyl)formamido]pentanamide] |  | 0% | 39 ± 7% |  | 16 ± 5% | 60 ± 2%
8 | CN(CCC[C@H](NC(=O)c1ccccc1-c1ccccc1)C(=O)NCCc1ccccc1)Cc1ccc(Cl)cc1 [Compound 20, (2S)-5-{[(4-chlorophenyl)methyl](methyl)amino}-N-(2-phenylethyl)-2-[(2-phenylphenyl)formamido]pentanamide] |  | 11 ± 3% | 39 ± 1% |  | 14 ± 7% | 51 ± 2%
9 | COc1ccc(CN(C)CCC[C@H](NC(=O)c2ccccc2-c2ccccc2)C(=O)NCCc2ccccc2)cc1 [Compound 21, (2S)-5-{[(4-methoxyphenyl)methyl](methyl)amino}-N-(2-phenylethyl)-2-[(2-phenylphenyl)formamido]pentanamide] |  | 0% | 47% |  | 12 ± 10% | 58 ± 14%
10 | COc1cccc(CN(C)CCC[C@H](NC(=O)c2ccccc2-c2ccccc2)C(=O)NCCc2ccccc2)c1 [Compound 22, (2S)-5-{[(3-methoxyphenyl)methyl](methyl)amino}-N-(2-phenylethyl)-2-[(2-phenylphenyl)formamido]pentanamide] |  | 6% | 39 ± 2% |  | 7 ± 6% | 50 ± 2%
11 | CN(CCC[C@H](NC(=O)c1ccccc1-c1ccccc1)C(=O)NCCc1ccccc1)CCc1ccccc1 [Compound 23, (2S)-5-[methyl(2-phenylethyl)amino]-N-(2-phenylethyl)-2-[(2-phenylphenyl)formamido]pentanamide] | 103 ± 15 nM | 22 ± 3% | 35 ± 8% |  |  | 
12 | O=C(N[C@@H](CCCN1CCc2ccccc2C1)C(=O)NCCc1ccccc1)c1ccccc1-c1ccccc1 [Compound 24, (2S)-N-(2-phenylethyl)-2-[(2-phenylphenyl)formamido]-5-(1,2,3,4-tetrahydroisoquinolin-2-yl)pentanamide] | 500 ± 10 nM |  |  | 320 ± 10 nM |  | 
13 | O=C(N[C@H](CCCN1CCc2ccccc2C1)C(=O)NCCc1ccccc1)c1ccccc1-c1ccccc1 [Compound 25, (2R)-N-(2-phenylethyl)-2-[(2-phenylphenyl)formamido]-5-(1,2,3,4-tetrahydroisoquinolin-2-yl)pentanamide] |  | 0% | 16 ± 5% |  | 14 ± 1% | 51 ± 14%
14 | O=C(N[C@H](CCCN1CCCCC1)C(=O)NCCc1ccccc1)c1ccccc1-c1ccccc1 [Compound 27, (2R)-N-(2-phenylethyl)-2-[(2-phenylphenyl)formamido]-5-(piperidin-1-yl)pentanamide] | 179 ± 64 nM | 0% | 13 ± 8% |  |  | 
15 | O=C(N[C@@H](CCCN1CCCCC1)C(=O)NCCCc1ccccc1)c1ccccc1-c1ccccc1 [Compound 28, (2S)-2-[(2-phenylphenyl)formamido]-N-(3-phenylpropyl)-5-(piperidin-1-yl)pentanamide] |  | 0% | 17% |  | 16 ± 25% | 41 ± 2%
16 | COc1ccc(-c2ccccc2C(=O)N[C@@H](CCCN2CCCCC2)C(=O)NCCCc2ccccc2)cc1 [Compound 29, (2S)-2-{[2-(4-methoxyphenyl)phenyl]formamido}-N-(3-phenylpropyl)-5-(piperidin-1-yl)pentanamide] | 170 ± 70 nM | 0% | 23 ± 5% |  |  | 
17 | COc1ccc(-c2ccccc2C(=O)N[C@@H](CCCN2CCCCCC2)C(=O)NCCCc2ccccc2)cc1 [Compound 30, (2S)-5-(azepan-1-yl)-2-{[2-(4-methoxyphenyl)phenyl]formamido}-N-(3-phenylpropyl)pentanamide] | 64 ± 32 nM |  |  | 76 ± 18 nM |  | 
18 | O=C(N[C@@H](CCCN1CCC(c2ccccc2)CC1)C(=O)NCCc1ccccc1)c1ccccc1-c1ccccc1 [Compound 31, (2S)-N-(2-phenylethyl)-2-[(2-phenylphenyl)formamido]-5-(4-phenylpiperidin-1-yl)pentanamide] | 485 ± 35 nM | 0% | 45 ± 7% |  |  | 
19 | O=C(N[C@@H](CCCN1CCC(Cc2ccccc2)CC1)C(=O)NCCc1ccccc1)c1ccccc1-c1ccccc1 [Compound 32, (2S)-5-(4-benzylpiperidin-1-yl)-N-(2-phenylethyl)-2-[(2-phenylphenyl)formamido]pentanamide] | 400 nM |  |  | 34 nM |  | 
20 | O=C(N[C@@H](CCCN1CCC(N2CCCCC2)CC1)C(=O)NCCc1ccccc1)c1ccccc1-c1ccccc1 [Compound 33, (2S)-N-(2-phenylethyl)-2-[(2-phenylphenyl)formamido]-5-[4-(piperidin-1-yl)piperidin-1-yl]pentanamide] | 71 ± 11 nM | 13 ± 11% | 55 ± 15% |  |  | 
21 | CN1CCN(CCC[C@H](NC(=O)c2ccccc2-c2ccccc2)C(=O)NCCc2ccccc2)CC1 [Compound 34, (2S)-5-(4-methylpiperazin-1-yl)-N-(2-phenylethyl)-2-[(2-phenylphenyl)formamido]pentanamide] | 232 ± 17 nM | 0% | 12 ± 5% |  |  | 
22 | CC(=O)N1CCN(CCC[C@H](NC(=O)c2ccccc2-c2ccccc2)C(=O)NCCc2ccccc2)CC1 [Compound 35, (2S)-5-(4-acetylpiperazin-1-yl)-N-(2-phenylethyl)-2-[(2-phenylphenyl)formamido]pentanamide] | 319 ± 13 nM | 0% | 0% |  |  | 
23 | O=C(N[C@@H](CCCN1CCOCC1)C(=O)NCCc1ccccc1)c1ccccc1-c1ccccc1 [Compound 36, (2S)-5-(morpholin-4-yl)-N-(2-phenylethyl)-2-[(2-phenylphenyl)formamido]pentanamide] |  | 2% | 25 ± 2% |  | 10 ± 3% | 25 ± 10%
24 | O=C(N[C@@H](CCCN1CCC(N2C(=O)Cc3ccccc32)CC1)C(=O)NCCc1ccccc1)c1ccccc1-c1ccccc1 [Compound 37, (2S)-5-[4-(2-oxo-2,3-dihydro-1H-indol-1-yl)piperidin-1-yl]-N-(2-phenylethyl)-2-[(2-phenylphenyl)formamido]pentanamide] |  | 0% | 45% |  | 21 ± 6% | 42 ± 3%
